Reference: US8912121B2, “Herbicidal compositions comprising 4-amino-3-chloro-5-fluoro-6-(4-chloro-2-fluoro-3-methoxyphenyl)pyridine-2-carboxylic acid or a derivative thereof and certain PS II inhibitors” (Dow Agrosciences LLC, priority 2012, dated 2014)

What was measured:
[1] = test system: SCPMA (Schoenoplectus maritimus, sea clubrush); experiment: In-water applied mixtures, transplanted paddy rice, greenhouse; format: in vivo, Schoenoplectus maritimus (L.) Lye; settings: 20 DAA
Experimental: (§1) Weed seeds or nutlets of the desired test plant species were planted in puddled soil (mud) prepared by mixing a shredded, non-sterilized mineral soil (50.5 percent silt, 25.5 percent clay, and 24 percent sand, with a pH of about 7.6 and an organic matter content of about 2.9 percent) and water at a 1:1 volumetric ratio. The prepared mud was dispensed in 365 mL aliquots into 16-ounce (oz.) non-perforated plastic pots with a surface area of 86.59 square centimeters (cm^2) leaving a headspace of 3 centimeters (cm) in each pot Mud was allowed to dry overnight prior to planting or transplanting. Rice seeds were planted in Sun Gro MetroMix® 306 planting mixture, which typically has a pH of 6.0 to 6.8 and an organic matter content of about 30 percent, in plastic plug trays. Seedlings at the second or third leaf stage of growth were transplanted into 840 mL of mud contained in 32-oz. non-perforated plastic pots with a surface area of 86.59 cm^2 4 days prior to herbicide application. The paddy was created by filling the headspace of the pots with 2.5 to 3 cm of water. When required to ensure good germination and healthy plants, a fungicide treatment and/or other chemical or physical treatment was applied. The plants were grown for 4-22 days in a greenhouse with an approximate 14 h photoperiod which was maintained at about 29° C during the day and 26° C. during the night. Nutrients were added as Osmocote® (19:6:12, N:P:K+ minor nutrients) at 2 g per 16-oz. pot and 4 g per 32-oz. pot. Water was added on a regular basis to maintain the paddy flood, and supplemental lighting was provided with overhead metal halide 1000-Watt lamps as necessary. The plants were employed for testing when they reached the first through fourth true leaf stage.
(§2) Treatments consisted of the acid or esters of 4-amino-3-chloro-5-fluoro-6-(4-chloro-2-fluoro-3-methoxy-phenyl)pyridine-2-carboxylic acid (compound A) each formulated as an SC (suspension concentrate) and various herbicidal components alone and in combination. Forms of compound A were applied on an acid equivalent basis.
(§3) Other herbicidal components were applied on an active ingredient basis and included photosystem II (PSII)-inhibits propanil formulated as […] bentazon-sodium formulated as Basagran®, and simetryne (technical grade material).
(§4) Treatment requirements for each compound or herbicidal component were calculated based upon the rates being tested, the concentration of active ingredient or acid equivalent in the formulation, an application volume of 2 mL per component per pot, and an application area of 86.59 cm^2 per pot.
(§5) For formulated compounds, a measured amount was placed in an individual 100 or 200 mL glass vial and was dissolved in a volume of 1.25% (v/v) Agri-Dex® crop oil concentrate to obtain application solutions.
(§6) For technical grade compounds, a weighed amount was placed in an individual 100 to 200 mL glass vial and was dissolved in a volume of acetone to obtain concentrated stock solutions. […] The concentrated stock solutions obtained were diluted with an equivalent volume of an aqueous mixture containing 2.5% (v/v) crop oil concentrate so that the final application solutions contained 1.25% (v/v) crop oil concentrate.
(§7) Applications were made by injecting with a pipetter appropriate amounts of the application solutions, individually and sequentially, into the aqueous layer of the paddy. Control plants were treated in the same manner with the solvent blank. Applications were made so that all treated plant material received the same concentrations of acetone and crop oil concentrate.
(§8) The treated plants and control plants were placed in a greenhouse as described above and water was added as needed to maintain a paddy flood. After approximately 3 weeks the condition of the test plants as compared with that of the untreated plants was determined visually and scored on a scale of 0 to 100 percent where 0 corresponds to no injury or growth inhibition and 100 corresponds to complete kill. […]

[2] = test system: ECHOR (Echinochloa oryzoides, early watergrass); experiment: as above; format: in vivo, Echinochloa oryzoides (Ard.) Fritsch; settings: 70 g ae/ha; 20 DAA
Experimental: as §1, §2, §3, §4, §5, §6, §7, §8

[3] = test system: IPOHE (Ipomoea hederacea, ivyleaf morningglory); experiment: Postemergence foliar-applied mixtures, direct seeded rice, greenhouse; format: in vivo, Ipomoea hederacea Jacq.; settings: post-emergence, 480 h
Description: Seeds or nutlets of the desired test plant species were planted in a soil matrix prepared by mixing a loam or sandy loam soil (e.g., 28.6 percent silt, 18.8 percent clay, and 52.6 percent sand, with a pH of about 5.8 and an organic matter content of about 1.8 percent) and calcareous grit in an 80 to 20 ratio. The soil matrix was contained in plastic pots with a volume of 1 quart and a surface area of 83.6 square centimeters (cm^2). When required to ensure good germination and healthy plants, a fungicide treatment and/or other chemical or physical treatment was applied. The plants were grown for 8-22 days in a greenhouse with an approximate 14 h photoperiod which was maintained at about 29° C. during the day and 26° C. during the night. Nutrients (Peters Excel® 15-5-15 5-Ca 2-Mg and iron chelate) were applied in the irrigation solution as needed and water was added on a regular basis. Supplemental lighting was provided with overhead metal halide 1000-Watt lamps as necessary. The plants were employed for testing when they reached the first through fourth true leaf stage.
Treatments consisted of the acid or esters of 4-amino-3-chloro-5-fluoro-6-(4-chloro-2-fluoro-3-methoxy-phenyl) pyridine-2-carboxylic acid (Compound A), each formulated as an SC (suspension concentrate), and various herbicidal components alone and in combination. Forms of compound A were applied on an acid equivalent basis.
Other herbicidal components were applied on an active ingredient basis and included Photosystem II (PSII)-inhibiting herbicides propanil formulated as Stam® M4 EC, bentazon-sodium formulated as Basagran®, atrazine formulated as Atrazine 90 WDG, bromoxynil octanoate ester formulated as Buctril®, simetryne (technical grade material), simazine formulated as Princep® Caliber 90, ioxynil (technical grade material), cyanazine (technical grade material), and hexazinone (technical grade material).
Treatment requirements were calculated based upon the rates being tested, the concentration of active ingredient or acid equivalent in the formulation, and a 12 mL application volume at a rate of 187 L/ha.
For treatments comprised of formulated compounds, measured amounts of compounds were placed individually in 25 mL glass vials and diluted in a volume of 1.25% (v/v) Agri-Dex® crop oil concentrated to obtain 12× stock solutions. […] Application solutions were prepared by adding an appropriate amount of each stock solution (e.g., 1 mL) and diluted to the appropriate final concentrations with the addition of 10 mL of an aqueous mixture of 1.25% (v/v) crop oil concentrate so that the final spray solutions contained 1.25+/−0.05% (v/v) crop oil concentrate.
For treatments comprised of technical compounds, weighed amounts can be placed individually in 25 mL glass vials and dissolved in a volume of 97:3 v/v acetone/DMSO to obtain 12× stock solutions. […] Application solutions can be prepared by adding an appropriate amount of each stock solution (e.g., 1 mL) and diluted to the appropriate final concentrations with the addition of 10 mL of an aqueous mixture of 1.5% (v/v) crop oil concentrate so that the final spray solutions contain 1.25% (v/v) crop oil concentrate. When technical materials are used, the concentrated stock solutions can be added to the spray solutions so that the final acetone and DMSO concentrations of the application solutions are 16.2% and 0.5%, respectively.
For treatments comprised of formulated and technical compounds, weighed amounts of the technical materials were placed individually in 25 mL glass vials and dissolved in a volume of 97:3 v/v acetone/DMSO to obtain 12× stock solutions, and measured amounts of the formulated compounds were placed individually in 25 mL glass vials and diluted in a volume of 1.5% (v/v) crop oil concentrate or water to obtain 12× stock solutions. […]

SMILES: CCCCOC(=O)c1nc(-c2ccc(Cl)c(OC)c2F)c(F)c(N)c1Cl [Compound A n-Butyl Ester]
- Visual Weed Control (%) Obs ([1]; 35 g ae/ha): 0%
- Visual Weed Control (%) Obs ([1]; 70 g ae/ha): 0%
- Visual Weed Control (%) Obs [2]: 40%
- pest or weed control at 16 g/ha ([3]; read-out: Visual Weed Control (%) Obs, 16 g ae/ha, 20 DAA): 15%
- pest or weed control at 17.5 g/ha ([3]; read-out: Visual Weed Control (%) Obs, 17.5 g ae/ha, 20 DAA): 48%
